This is an account of results in patent US10851065B2 (Eisai R&D Management Co., Ltd., priority 2015, dated 2020).

One may read the GI50 as the concentration that inhibits growth by half.

Experiment [1] has as its system MCF7-Y537S cells (MCF7 ER-alpha Y537S mutant). The experiment is described as follows: In vitro proliferation (viability) assay, CellTiter-Glo, MCF7-Y537S cells. The experiment is classed as cell-based. Conditions: Homo sapiens; MCF7-Y537S cells, 6 days, CTG vs day 0; mean ± SD-type spread (n); read-out: GI50 MUT (Y537S). The method in brief:
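Stable lentiviral MCF7 lines expressing WT or Y537S ESR1 seeded at 1500 cells/well; next day dosed with 10-point 1:4 dilutions in triplicate, with media/compound refreshed on day 3. CellTiter-Glo luminescence on day 6 compared with a day 0 reading to give GI50.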

The test system of experiment [2] is MCF7-WT cells (MCF7 ER-alpha wildtype). The experiment is described as follows: In vitro proliferation (viability) assay, CellTiter-Glo, MCF7-WT cells. The experiment is classed as cell-based. The note with it: Homo sapiens; MCF7-WT cells, 6 days, CTG vs day 0; mean ± SD-type spread (n); read-out: GI50 WT. (In general: ATP-based viability assays read luminescence as a measure of living cells.)

Consider `CC/C(=C(/c1ccc(OCCNC/C=C/C(=O)N(C)C)cc1)c1cc2c(F)n[nH]c2cc1F)c1ccccc1` [Compound 66, (E)-4-((2-(4-((E)-1-(3,6-difluoro-1H-indazol-5-yl)-2-phenylbut-1-en-1-yl)phenoxy)ethyl)amino)-N,N-dimethylbut-2-enamide], for which the GI50 was 827 nM in experiment [1] and 32.1 nM in experiment [2].
`CC/C(=C(/c1ccc(OCCNC/C=C/C(=O)N(C)C)cc1)c1ccc2[nH]nc(F)c2c1)c1ccccn1` [Compound 67, (E)-4-((2-(4-((E)-1-(3-fluoro-1H-indazol-5-yl)-2-(pyridin-2-yl)but-1-en-1-yl)phenoxy)ethyl)amino)-N,N-dimethylbut-2-enamide]: the GI50 amounted to 193 nM in experiment [1] and 10.5 nM in experiment [2].
In the same order, the values of `CC/C(=C(/c1ccc(OCCNC/C=C/C(=O)N(C)C)nc1)c1ccc2[nH]nc(F)c2c1)c1ccccc1` [Compound 68, (E)-4-((2-((5-((Z)-1-(3-fluoro-1H-indazol-5-yl)-2-phenylbut-1-en-1-yl)pyridin-2-yl)oxy)ethyl)amino)-N,N-dimethylbut-2-enamide] are 30.3 nM and 2.8 nM.
Turning to `CN(C)C(=O)/C=C/CNCCOc1ccc(/C(=C(\c2ccccc2)C2CCC2)c2ccc3[nH]nc(F)c3c2)cn1` [Compound 72, (E)-4-((2-((5-((Z)-2-cyclobutyl-1-(3-fluoro-1H-indazol-5-yl)-2-phenylvinyl)pyridin-2-yl)oxy)ethyl)amino)-N,N-dimethylbut-2-enamide], the GI50 in experiment [1] turned out to be 32.7 nM; in experiment [2], 2 nM.
Regarding `CC/C(=C(/c1ccc(OCCNC/C=C/C(=O)N(C)C)cc1)c1ccc2[nH]nc(F)c2c1)c1ccccc1Cl` [Compound 73, (E)-4-((2-(4-((E)-2-(2-chlorophenyl)-1-(3-fluoro-1H-indazol-5-yl)but-1-en-1-yl)phenoxy)ethyl)amino)-N,N-dimethylbut-2-enamide], the GI50 was determined as 40.5 nM in experiment [1] and 1.7 nM in experiment [2].
Take `CC/C(=C(/c1ccc(OCCNC/C=C/C(=O)N(C)C)cc1)c1ccc2[nH]ncc2c1)c1ccc(F)cc1Cl` [Compound 74, (E)-4-((2-(4-((E)-2-(2-chloro-4-fluorophenyl)-1-(1H-indazol-5-yl)but-1-en-1-yl)phenoxy)ethyl)amino)-N,N-dimethylbut-2-enamide]: the GI50 is 28.8 ± 14 nM in experiment [1] and 1.8 ± 0.5 nM in experiment [2].
For `CC/C(=C(/c1ccc(OCCNC/C=C/C(=O)N(C)CCO)cc1)c1ccc2[nH]nc(F)c2c1)c1ccncc1` [Compound 75, (E)-4-((2-(4-((E)-1-(3-fluoro-1H-indazol-5-yl)-2-(pyridin-4-yl)but-1-en-1-yl)phenoxy)ethyl)amino)-N-(2-hydroxyethyl)-N-methylbut-2-enamide] the same measures were 72.2 nM and 3.2 nM.
In the same order, the values of `CC/C(=C(/c1ccc(OCCNC/C=C/C(=O)N(C)C)cc1)c1cc(F)c2[nH]ncc2c1)c1ccccc1` [Compound 76, (E)-4-((2-(4-((E)-1-(7-fluoro-1H-indazol-5-yl)-2-phenylbut-1-en-1-yl)phenoxy)ethyl)amino)-N,N-dimethylbut-2-enamide] are 32.2 nM and 1.2 nM.
For `CCC/C(=C(/c1ccc(OCCNC/C=C/C(=O)N(C)C)cc1)c1ccc2[nH]nc(F)c2c1)c1ccccc1` [Compound 77, (E)-4-((2-(4-((E)-1-(3-fluoro-1H-indazol-5-yl)-2-phenylpent-1-en-1-yl)phenoxy)ethyl)amino)-N,N-dimethylbut-2-enamide] the same measures were 35 nM and 2.4 nM.
Regarding `CC/C(=C(/c1ccc(OCCNC/C=C/C(=O)N(C)C)cc1)c1cc(F)c2[nH]nc(F)c2c1)c1ccccc1` [Compound 79, (E)-4-((2-(4-((E)-1-(3,7-difluoro-1H-indazol-5-yl)-2-phenylbut-1-en-1-yl)phenoxy)ethyl)amino)-N,N-dimethylbut-2-enamide], the GI50 is 92.5 nM in experiment [1] and 6.9 nM in experiment [2].
On to `CC/C(=C(/c1ccc(OCCNC/C=C/C(=O)N(C)C)cc1)c1ccc2[nH]nc(F)c2c1)c1cc(F)ccc1F` [Compound 80, (E)-4-((2-(4-((E)-2-(2,5-difluorophenyl)-1-(3-fluoro-1H-indazol-5-yl)but-1-en-1-yl)phenoxy)ethyl)amino)-N,N-dimethylbut-2-enamide], for which the GI50 came out at 33.6 nM in experiment [1] and 2 nM in experiment [2].
In the same order, the values of `CC/C(=C(/c1ccc(OCCNC/C=C/C(=O)N(C)C)cc1)c1ccc2[nH]nc(F)c2c1)c1ccncc1F` [Compound 81, (E)-4-((2-(4-((E)-1-(3-fluoro-1H-indazol-5-yl)-2-(3-fluoropyridin-4-yl)but-1-en-1-yl)phenoxy)ethyl)amino)-N,N-dimethylbut-2-enamide] are 13 nM and 0.3 nM.
Take `CC(C)/C(=C(/c1ccc(OCCNC/C=C/C(=O)N(C)C)cc1)c1ccc2[nH]nc(F)c2c1)c1ccccc1` [Compound 82, (E)-4-((2-(4-((E)-1-(3-fluoro-1H-indazol-5-yl)-3-methyl-2-phenylbut-1-en-1-yl)phenoxy)ethyl)amino)-N,N-dimethylbut-2-enamide]: the GI50 was found to be 93.7 ± 6.3 nM in experiment [1] and 4.65 ± 2.9 nM in experiment [2].
For the compound `CN(C)C(=O)/C=C/CNCCOc1ccc(/C(=C(/CCF)c2ccccc2)c2ccc3[nH]nc(F)c3c2)cc1` [Compound 84], the GI50 in experiment [1] is 34.9 ± 1.5 nM; in experiment [2], 2.15 ± 0.15 nM.
For `CC/C(=C(/c1ccc(OCCNCC/C=C/C(=O)N(C)C)cc1)c1ccc2[nH]nc(F)c2c1)c1ccc(F)cc1Cl` [Compound 85] the same measures were 28.4 ± 2.9 nM and 1.56 ± 0.56 nM.
As to `CC/C(=C(/c1ccc(OCCNC/C=C(\C)C(=O)N(C)C)cc1)c1ccc2[nH]nc(F)c2c1)c1ccc(F)cc1Cl` [Compound 86], the GI50 in experiment [1] was found to be 29.4 ± 4.7 nM; in experiment [2], 1.73 ± 1 nM.
In the same order, the values of `CN(C)C(=O)/C=C/CNCCOc1ccc(/C(=C(/CC(F)(F)F)c2ccc(F)cc2Cl)c2ccc3[nH]nc(F)c3c2)cc1` [Compound 87, (E)-4-((2-(4-((E)-2-(2-chloro-4-fluorophenyl)-4,4,4-trifluoro-1-(3-fluoro-1H-indazol-5-yl)but-1-en-1-yl)phenoxy)ethyl)amino)-N,N-dimethylbut-2-enamide] are 21.9 nM and 0.25 nM.
For `[2H]c1c([2H])c([2H])c(/C(CC)=C(\c2ccc(OCCNC/C=C/C(=O)N(C)C)cc2)c2ccc3[nH]ncc3c2)c([2H])c1[2H]` [Compound 88, (E)-4-((2-(4-((E)-1-(1H-indazol-5-yl)-2-(phenyl-d5)but-1-en-1-yl)phenoxy)ethyl)amino)-N,N-dimethylbut-2-enamide] the same measures were 12.5 nM and 0.7 nM.
In the same order, the values of `CC/C(=C(/c1ccc(OCCNC(C)/C=C/C(=O)N(C)C)cc1)c1ccc2[nH]ncc2c1)c1ccccc1` (stereo not shown) [Compound 89, (E)-4-((2-(4-((E)-1-(1H-indazol-5-yl)-2-phenylbut-1-en-1-yl)phenoxy)ethyl)amino)-N,N-dimethylpent-2-enamide] are 35 nM and 2.8 nM.
For `CC/C(=C(/c1ccc(OC(C)CNC/C=C/C(=O)N(C)C)cc1)c1ccc2[nH]ncc2c1)c1ccccc1` (stereo not shown) [Compound 90, (E)-4-((2-(4-((E)-1-(1H-indazol-5-yl)-2-phenylbut-1-en-1-yl)phenoxy)propyl)amino)-N,N-dimethylbut-2-enamide], the GI50 in experiment [1] was found to be 22.7 nM; in experiment [2] it was 2.5 nM.
Consider `CC/C(=C(/c1ccc(OCC(C)NC/C=C/C(=O)N(C)C)cc1)c1ccc2[nH]ncc2c1)c1ccccc1` (stereo not shown) [Compound 92, (E)-4-((1-(4-((E)-1-(1H-indazol-5-yl)-2-phenylbut-1-en-1-yl)phenoxy)propan-2-yl)amino)-N,N-dimethylbut-2-enamide], for which the GI50 turned out to be 26.9 nM in experiment [1] and 2.3 nM in experiment [2].
In the same order, the values of `CC/C(=C(\c1ccc2[nH]nc(F)c2c1)c1ccc(OCCNC/C=C/C(=O)N(C)C)cn1)c1ccccc1` [Compound 93, (E)-4-((2-((6-((Z)-1-(3-fluoro-1H-indazol-5-yl)-2-phenylbut-1-en-1-yl)pyridin-3-yl)oxy)ethyl)amino)-N,N-dimethylbut-2-enamide] are 369 nM and 12.4 nM.
For `CC/C(=C(/c1ccc(OCCCNC/C=C/C(=O)N(C)C)cc1)c1ccc2[nH]ncc2c1)c1ccccc1` [Compound 95, (E)-4-((3-(4-((E)-1-(1H-indazol-5-yl)-2-phenylbut-1-en-1-yl)phenoxy)propyl)amino)-N,N-dimethylbut-2-enamide] the same measures were 32.4 nM and 1.8 nM.
In the same order, the values of `CC/C(=C(/c1ccc(OC(C)C(C)NC/C=C/C(=O)N(C)C)cc1)c1ccc2[nH]ncc2c1)c1ccccc1` (stereo not shown) [Compound 96, (E)-4-((3-(4-((E)-1-(1H-indazol-5-yl)-2-phenylbut-1-en-1-yl)phenoxy)butan-2-yl)amino)-N,N-dimethylbut-2-enamide] are 27.2 nM and 2 nM.
With `CC/C(=C(/c1ccc(OCC(C)(C)NC/C=C/C(=O)N(C)C)cc1)c1ccc2[nH]ncc2c1)c1ccccc1` [Compound 98, (E)-4-((1-(4-((E)-1-(1H-indazol-5-yl)-2-phenylbut-1-en-1-yl)phenoxy)-2-methylpropan-2-yl)amino)-N,N-dimethylbut-2-enamide], the GI50 in experiment [1] was 13.4 nM; in experiment [2] it was 0.4 nM.
In the same order, the values of `CC/C(=C(/c1ccc(OC(C)(C)CNC/C=C/C(=O)N(C)C)cc1)c1ccc2[nH]ncc2c1)c1ccccc1` [Compound 99, (E)-4-((2-(4-((E)-1-(1H-indazol-5-yl)-2-phenylbut-1-en-1-yl)phenoxy)-2-methylpropyl)amino)-N,N-dimethylbut-2-enamide] are 81.4 nM and 2.7 nM.
